Reference: patent publication US20240067682A1, “PEPTIDE HAVING PLANT STEM CELL-INDUCING EFFECT AND PLANT PEST RESISTANCE-INDUCING EFFECT” (KYOTO PREFECTURAL PUBLIC UNIVERSITY CORPORATION, priority 2020, published 2024)

Legend:
[1] = tested on: Pseudomonas syringae pv tomato DC3000; test: Disease tolerance test with CAP6 peptide: DC3000 infection of sprayed Arabidopsis thaliana leaves; format: in vivo; conditions: 60 nM CAP6 peptide/0.02% Silwet L-77 sprayed 48 hours before infection; counted one day after infection
Experimental: Multiple types (76 types) of CAP proteins derived from Schlechtendalia chinensis, Caloptilia cecidophora, Borboryctis euryae, Caloptilia ryukyuensis, Rhus javanica, and Arabidopsis thaliana were aligned. From the consensus sequence (FIG. 9), FTQIVW (SEQ ID NO: 21) was determined (hereinafter referred to as “CAP6 peptide”). Then, Arabidopsis thaliana leaves were sprayed with 0.02% Silwet L-77 (Control), 60 nM CAP peptide/0.02% Silwet L-77, or 60 nM CAP6 peptide/0.02% Silwet L-77, and 48 hours later, infected with Pseudomonas syringae pv tomato DC3000 (DC3000) with an OD600 of 0.2×10^−3. One day later, DC3000 obtained from leaf fragments cut into 5-mm-diameter circles was diluted and spotted on LB medium containing kanamycin. 24 hours later, the number of bacteria per unit area was counted.

[2] = tested on: wild-type Arabidopsis thaliana seeds; test: Osmotic and drought tolerance: growth of peptide-immersed seeds on excess mannitol- or sorbitol-containing medium; format: in vivo
Experimental: Next, wild-type Arabidopsis thaliana seeds were immersed in water (Control) or 600 nM CAP peptide for 5 minutes and then grown on an excess mannitol-containing medium. Further, wild-type Arabidopsis thaliana seeds were immersed in water (Control) or 600 nM CAP peptide overnight, and then grown on an excess sorbitol-containing medium.

[3] = tested on: genes related to disease resistance; test: RNA-seq gene expression after 48 hours immersion in CAP peptide; format: in vivo, Arabidopsis thaliana; conditions: 600 nM, immersion 48 hours, vs water
Experimental: RNA of Arabidopsis thaliana immersed in water or a 600 nM CAP peptide solution for 48 hours was extracted, and gene expression was compared by RNA-seq analysis. Network analysis was then performed.

[4] = tested on: Pseudomonas syringae pv tomato DC3000; test: DC3000 inoculation of Brassica rapa leaves sprayed with 60 nM CAP peptide; format: in vivo
Experimental: Brassica rapa leaves were sprayed with water or a 60 nM CAP peptide solution in advance, and one day later, inoculated with plant pathogen Pseudomonas syringae pv tomato DC3000 (DC3000). 2 days after infection, DC3000 obtained from leaf fragments cut into 4-mm-diameter circles was diluted, spotted on LB medium containing kanamycin, and incubated at 28° C. for 24 hours.

[5] = tested on: Arabidopsis thaliana expressing stem cell marker PLT1-GFP; test: Stem cell induction in Arabidopsis thaliana roots expressing stem cell marker PLT1-GFP (confocal imaging); format: in vivo; conditions: 600 nM peptide aqueous solution, immersion 2 days
Experimental: Arabidopsis thaliana roots were treated with CAP peptide ([…]). Arabidopsis thaliana expressing stem cell marker PLT1-GFP was immersed in water or a 600 nM peptide aqueous solution for 2 days, and GFP fluorescent images and bright field images were obtained with a confocal laser microscope.

[6] = tested on: Pseudomonas syringae pv tomato DC3000; test: DC3000 infection of Arabidopsis thaliana leaves sprayed with 600 nM CAP peptide, bacterial count; format: in vivo; conditions: leaves sprayed with 600 nM CAP peptide/0.02% Silwet L-77 24 hours before infection; counted 2 days after infection
Experimental: Next, Arabidopsis thaliana leaves were sprayed with water/0.02% Silwet L-77 (Control) or 600 nM CAP peptide/0.02% Silwet L-77, and 24 hours later, infected with Pseudomonas syringae pv tomato DC3000 (DC3000) with an OD600 of 0.2×10^−3. 2 days later, DC3000 obtained from leaf fragments cut into 4-mm-diameter circles was diluted and spotted on LB medium containing kanamycin. After incubation at 28° C. for 24 hours, the number of bacteria per unit area was counted.

Rorippa aquatica = test: Agrobacterium transformation of Rorippa aquatica in the presence of CAP peptide; format: in vivo; conditions: 1 μM CAP peptide mixed with Agrobacterium carrying GFP-TUB6 plasmid
Experimental: Agrobacterium introduced with a plasmid expressing GFP-TUB6 protein was mixed with CAP peptide to final concentrations of 50 nM, 1 μM, and 10 μM, and transformed into Rorippa aquatica.

[7] = tested on: Cherry tomato Sun Cherry seedlings; test: Growth promotion of cherry tomato Sun Cherry seedlings; format: in vivo; conditions: 1 μM CAP peptide sprayed twice (Jul. 21 and July 28); t-test p<0.05
Experimental: Cherry tomato Sun Cherry seedlings were purchased, sprayed with 1 μM CAP peptide on Jul. 21, 2021, and then grown in planters in an alley. The second 1 μM CAP peptide treatment was performed on July 28.

[8] = tested on: Pseudomonas syringae DC3000; test: DC3000 inoculation of Arabidopsis thaliana leaves applied with 60 nM CAP peptide; format: in vivo
Experimental: Arabidopsis thaliana leaves applied with water or 60 nM CAP peptide were inoculated with Pseudomonas syringae DC3000.

[9] = tested on: Arabidopsis thaliana seeds; test: Germination of Arabidopsis thaliana seeds harvested 10 years before; format: in vivo; conditions: seeds immersed in 1, 10 or 100 μM CAP peptide for 2 hours; measured 2 weeks after sowing
Experimental: Arabidopsis thaliana seeds harvested 10 years before and not naturally germinated were immersed in 0, 1, 10, or 100 μM CAP peptide for 2 hours and then sown. The germination rate was measured 2 weeks later.

[10] = tested on: genes related to freezing tolerance and drought tolerance; test: RNA-seq gene expression after 4 hours immersion in CAP peptide; format: in vivo, Arabidopsis thaliana; conditions: 600 nM, immersion 4 hours, vs water
Experimental: RNA of Arabidopsis thaliana immersed in water or a 600 nM CAP peptide solution for 4 hours was extracted, and gene expression was compared by RNA-seq analysis. Network analysis was then performed on genes with increased expression.

Substance	disease tolerance effect [1]	root extension on excess mannitol-containing medium vs control ([2]; 600 nM, 5 minutes immersion, high-osmotic pressure conditions)	root extension on excess sorbitol-containing medium vs control ([2]; 600 nM, overnight immersion, dry conditions)	growth on excess mannitol-containing medium, mean value ([2]; seeds immersed in 600 nM CAP peptide for 5 minutes, high-osmotic pressure conditions, FIG. 3 upper)	growth on excess sorbitol-containing medium, mean value ([2]; seeds immersed in 600 nM CAP peptide overnight, dry conditions, FIG. 3 lower)	increase in expression of genes related to disease resistance [3] [factor]	freshness after pathogen treatment vs water treatment ([4]; 60 nM CAP peptide sprayed one day before inoculation)	inhibition of bacterial growth compared with water treatment ([4]; 60 nM CAP peptide, 2 days after pathogen inoculation) [times]	transformation of differentiated cells into stem cells ([5]; PLT1-GFP marker)	induction of gall-like structure ([5]; roots)	growth of bacteria after infection [6]	transformation efficiency (Rorippa aquatica)	effect of promoting stem extension compared with CAP-untreated group [7]	growth of the pathogen ([8]; 4 days after infection)	plant body growth vs water treatment ([8]; 13 days after infection)	seed yield vs water treatment ([8]; 13 days after pathogen infection)	germination rate compared with gibberellin treatment [9]	increase in expression of genes related to freezing tolerance and drought tolerance [10] [factor]
FTQIVW (consensus sequence of CAP) [CAP6 peptide]	a remarkable effect was obtained																	
TQVVWKSTTNIGVGILIVNGTV (partial peptide of CAP) [CAP peptide, synthetic peptide from the conserved region of insect CAP (cysteine-rich secretory protein, antigen 5, and pathogenesis-related 1)]		extended more	extended more	11.69 (S.D.=1.55)	7.71 (S.D.=1.39)	2 to 3	freshness was maintained for a longer period of time	≥ 1000	differentiated cells were transformed into stem cells	induced a gall-like structure	suppressed the growth of bacteria	high efficiency transformation	significantly confirmed	significantly inhibited	grew much larger	yielded more seeds	much higher germination rate	≥ 2
